{
  "source": "patent US12678438B2",
  "about": "“Treatment of cancer with CDK inhibitors” (THE TRUSTEES OF THE UNIVERSITY OF PENNSYLVANIA, priority 2019, dated 2026)",
  "key": {"[1]": {"system": "AR target proteins (ERG, MYC, PSA)", "assay": "Immunoblot of AR target proteins", "assay_type": "cell-based, human", "description": "(§1) Cell lysates were prepared with RIPA buffer (Boston Bioproducts, BP-115DG)-10 mM Tris-HCl pH 7.5, 1 mM EDTA, 400 mM NaCl, 0.5% NP-40 and 1 mM DTT, supplemented with protease inhibitor cocktail (Pierce, A32965) and phosphatase inhibitor (Thermo, 1861280). For immunoblotting 200 μg total protein extract was boiled in sample buffer and 15-25 μg aliquots were separated by SDS-PAGE and transferred onto Polyvinylidene Difluoride membrane (GE Healthcare, IPVH00010). The membrane was incubated for one hour in blocking buffer [Tris-buffered saline, 0.1% Tween (TBS-T), 5% nonfat dry milk followed by overnight incubation on a rocker at 4° C. with the primary antibody. Following a wash with TBS-T, the blot was incubated with horseradish peroxidase-conjugated secondary antibody for 2 hrs on a rocker at room temperature. The blots were washed again and signals were visualized using enhanced chemiluminescence system as per manufacturer's protocol (GE Healthcare) or Kwik Quant Imager (Kindle Biosciences). […]"}, "p-MED1 (p-T1457 MED1)": {"system": "p-MED1 (p-T1457 MED1)", "assay": "Immunoblot of p-MED1 in AR negative RWPE and DU145 cells", "assay_type": "cell-based, human", "conditions": "RWPE and DU145, highest tested concentration", "description": "as §1"}, "CDK7": {"target": "CDK7 (Homo sapiens, UniProt P50613)", "sequence (P50613 whole entry)": "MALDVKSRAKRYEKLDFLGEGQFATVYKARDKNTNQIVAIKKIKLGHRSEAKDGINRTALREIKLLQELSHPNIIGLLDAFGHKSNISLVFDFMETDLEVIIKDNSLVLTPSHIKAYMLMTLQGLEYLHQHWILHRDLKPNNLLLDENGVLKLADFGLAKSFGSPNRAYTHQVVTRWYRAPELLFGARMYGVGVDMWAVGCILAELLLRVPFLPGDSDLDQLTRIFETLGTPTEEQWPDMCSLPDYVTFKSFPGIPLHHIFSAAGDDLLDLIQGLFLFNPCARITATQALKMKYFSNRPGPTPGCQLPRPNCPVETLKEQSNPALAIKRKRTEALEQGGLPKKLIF", "sequence (P51946 whole entry partner)": "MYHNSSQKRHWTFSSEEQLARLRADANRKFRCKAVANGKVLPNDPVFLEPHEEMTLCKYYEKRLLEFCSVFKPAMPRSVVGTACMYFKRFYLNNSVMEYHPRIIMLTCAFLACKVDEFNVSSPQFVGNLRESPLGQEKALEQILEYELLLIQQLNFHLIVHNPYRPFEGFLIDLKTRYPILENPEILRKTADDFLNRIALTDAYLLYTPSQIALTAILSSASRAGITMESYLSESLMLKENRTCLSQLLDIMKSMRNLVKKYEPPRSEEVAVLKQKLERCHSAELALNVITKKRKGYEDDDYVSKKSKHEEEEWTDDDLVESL", "sequence (P51948 whole entry partner)": "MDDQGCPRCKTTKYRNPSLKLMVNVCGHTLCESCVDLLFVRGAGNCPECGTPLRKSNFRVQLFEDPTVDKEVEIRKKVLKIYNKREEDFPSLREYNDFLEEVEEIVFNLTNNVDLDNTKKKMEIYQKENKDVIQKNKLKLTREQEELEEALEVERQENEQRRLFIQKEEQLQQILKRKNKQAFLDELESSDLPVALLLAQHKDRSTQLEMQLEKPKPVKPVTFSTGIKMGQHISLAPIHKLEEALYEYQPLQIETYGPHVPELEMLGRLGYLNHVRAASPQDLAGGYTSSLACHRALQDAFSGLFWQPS", "assay": "Luminescence-based CDK7 kinase activity on MED1 peptide", "assay_type": "biochemical", "conditions": "varying concentration of THZ1", "quoted_text": "For luminescence-based CDK7 kinase activity analysis wild type MED1-peptide “[sequence]” and mutant MED1-peptide “[sequence]” (GenScript, U2051EC280_1, U2051EC280_3) were used. Following the above protocol, briefly after 60 min incubation, post addition of CAK complex, ADP-GLOW reagent (Promega, V6930) was thawed and 25 ul of the reagent was added to each well, the plate was covered with aluminum foil and incubated at room temperature (RT) for 45 min. After the incubation Kinase-Detection reagent (BPS Bioscience, 79603) was thawed and 50 ul of the reagent was added to each well and incubated for another 45 min at RT under dark conditions. After 45 min incubation luminescence was measured using the microplate reader (Note: in luminescence-based kinase assay, CAK-complex+CTD-peptide (BPS Bioscience)+ATP was used as a positive control, were as CAK complex+Human MED1 protein without ATP was used as a negative control to subtract the background readings)."}, "AR-dependent PCa lines": {"system": "AR-dependent PCa lines", "assay": "Cell viability assay (Cell-Titer GLO), GI50", "assay_type": "cell-based", "conditions": "Homo sapiens; five AR-dependent PCa lines, 96 h incubation", "description": "(§2) Cell viability assays were performed by seeding the cells in 96-well plates at 2500-10000 cells/well (optimum density for growth) in a total volume of 100 μL complete media. Serially diluted compounds/drugs in 100 μL media were added to the cells 24 h post seeding. Following 96 h incubation, cell viability was assessed by Cell-Titer GLO (Promega, PR G7571). The measurements were normalized and regression curves were fitted to calculate GI50 using GraphPad Prism software."}, "AR-negative cells": {"system": "AR-negative cells", "assay": "Cell viability assay (Cell-Titer GLO), GI50", "assay_type": "cell-based", "conditions": "Homo sapiens; three AR-negative cells, 96 h incubation", "description": "as §2"}, "AR-positive cells": {"system": "AR-positive cells", "assay": "Long-term colony formation assay", "assay_type": "cell-based, human", "conditions": "50 nM THZ1, 12-14 days", "description": "For the long-term colony formation assay, 10,000-50,000 cells/well in six-well plates (n=3) were seeded and treated with the required drugs/compounds or vehicle for 14 days. Media was refreshed every 4-5 days. Colonies were fixed and stained using 0.5% (w/v) crystal violet (Sigma, C0775) in 20% (v/v) methanol for 30 min, washed with distilled deionized water, and air-dried. To quantify staining, we washed the stained wells with 500 μL 10% acetic acid and using colorimetric assays determined the absorbance at 590 nm using a spectrophotometer (Synergy HT, BioTek Instruments, Vermont-USA)."}, "AR target genes": {"system": "AR target genes", "assay": "qRT-PCR of DHT-induced AR target gene expression", "assay_type": "cell-based, human", "conditions": "LNCaP and VCaP, 100 nM THZ1", "description": "For AR signaling stimulation experiments, cells were plated in complete media at required confluency. After 24 h cells were washed with DPBS and cultured in RPMI/DMEM without Phenol Red (Invitrogen, 11835030) and 10% charcoal-dextran stripped FBS (Gemini BioProducts, 100-119) for 72 h. Cells were then stimulated with 10 nM DHT for the specific time points.\nTotal RNA was isolated from cells using miRNeasy Mini Kit (Qiagen, 74106) and cDNA was synthesized from 1 μg total RNA using SuperScriptIV (Life Technologies, 18090200). qRT-PCR was performed using Fast SYBR Master Mix (Life Technologies, 4385617) or Taqman Fast Advance MMIX (Life Technologies, 4444964), and analyzed on QuantStudio3 (Applied Biosystems, USA). The target mRNA expression was quantified using ΔΔCt method, as normalized to GAPDH transcript levels. Primers were designed using Primer3 Input (version 0.4.0) (bioinfo.ut.ee/primer3-0.4.0/primer3) and synthesized by Integrated DNA Technologies."}, "[2]": {"system": "AR-negative PC3 and DU145 cells", "assay": "Annexin V-FITC apoptosis analysis", "assay_type": "cell-based, human", "description": "(§3) Apoptosis induction was quantified using the Annexin-V and FITC Apoptosis Kit, as per manufacturer's instructions. Briefly LNCaP, VCaP, DU145 and PC3 cells were plated at a density of 5×10^5 cells per well in a 6-well culture plate. After subsequent treatments, the cells were harvested following incubation with a staining solution containing 10 μL propidium iodide and 5 μL Annexin for 10 min and analyzed by flow cytometry (BD FACS Aria II, BD Biosciences, San Jose)."}, "[3]": {"system": "AR-positive LNCaP and VCaP cells", "assay": "Annexin V-FITC apoptosis analysis", "assay_type": "cell-based, human", "description": "as §3"}},
  "data": [
    {"smiles": "CN(C)C/C=C/C(=O)Nc1ccc(C(=O)Nc2cccc(Nc3ncc(Cl)c(-c4c[nH]c5ccccc45)n3)c2)cc1", "note": "[THZ1]", "values": [
      {"measurement": "AR target protein expression", "setting": "[1]; LNCaP and VCaP", "value": "decreased AR target protein expression"},
      {"measurement": "ERG levels", "setting": "[1]; VCaP, dose and time-dependent", "value": "reduction in ERG levels"},
      {"measurement": "p-MED1 or pS5-PolII levels", "setting": "p-MED1 (p-T1457 MED1)", "value": "no such decrease in p-MED1 or pS5-PolII levels"},
      {"measurement": "CDK7-mediated phosphorylation of the T1457 wildtype peptide", "setting": "CDK7", "value": "inhibited by THZ1 treatment in a dose-dependent manner"},
      {"measurement": "GI50", "setting": "AR-dependent PCa lines", "value": "50 to 170", "unit": "nM"},
      {"measurement": "GI50", "setting": "AR-negative cells", "value": "400 to 600", "unit": "nM"},
      {"measurement": "long-term colony formation", "setting": "AR-positive cells", "value": "severely inhibited long-term colony formation"},
      {"measurement": "DHT-induced AR target gene expression", "setting": "AR target genes", "value": "phenocopied the reduction in DHT-induced gene expression"},
      {"measurement": "apoptosis", "setting": "[2]", "value": "not observed"},
      {"measurement": "apoptosis", "setting": "[3]", "value": "induced robust apoptosis"}
    ]}
  ]
}
